Legend:
[1] = molecular target: 5-hydroxytryptamine receptor 7 (Homo sapiens, UniProt P34969); experiment: Binding affinity to human cloned 5HT7 receptor expressed in HEK293 cells; format: cell-based
[2] = molecular target: T1, 5-hydroxytryptamine receptor 1A (Rattus norvegicus, UniProt P19327); experiment: Binding affinity to 5HT1A receptor in rat hippocampus; format: tissue-based
T1 sequence (P19327 whole entry): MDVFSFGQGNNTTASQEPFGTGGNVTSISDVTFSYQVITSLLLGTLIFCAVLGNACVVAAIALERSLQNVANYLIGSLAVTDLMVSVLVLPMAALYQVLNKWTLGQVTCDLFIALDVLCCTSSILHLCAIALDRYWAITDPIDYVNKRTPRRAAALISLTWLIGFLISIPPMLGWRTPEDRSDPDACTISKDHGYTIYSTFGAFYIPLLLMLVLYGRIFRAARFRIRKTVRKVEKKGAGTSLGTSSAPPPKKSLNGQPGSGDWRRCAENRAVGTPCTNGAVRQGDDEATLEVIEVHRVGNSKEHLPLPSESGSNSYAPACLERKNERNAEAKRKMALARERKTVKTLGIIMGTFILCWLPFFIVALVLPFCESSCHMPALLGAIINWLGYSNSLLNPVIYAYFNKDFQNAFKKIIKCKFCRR

[3] = molecular target: 5-hydroxytryptamine receptor 2A (Rattus norvegicus, UniProt P14842); experiment: Binding affinity to 5HT2A receptor in rat cortex; format: tissue-based
5-hydroxytryptamine receptor 2A, sequence (P14842 whole entry): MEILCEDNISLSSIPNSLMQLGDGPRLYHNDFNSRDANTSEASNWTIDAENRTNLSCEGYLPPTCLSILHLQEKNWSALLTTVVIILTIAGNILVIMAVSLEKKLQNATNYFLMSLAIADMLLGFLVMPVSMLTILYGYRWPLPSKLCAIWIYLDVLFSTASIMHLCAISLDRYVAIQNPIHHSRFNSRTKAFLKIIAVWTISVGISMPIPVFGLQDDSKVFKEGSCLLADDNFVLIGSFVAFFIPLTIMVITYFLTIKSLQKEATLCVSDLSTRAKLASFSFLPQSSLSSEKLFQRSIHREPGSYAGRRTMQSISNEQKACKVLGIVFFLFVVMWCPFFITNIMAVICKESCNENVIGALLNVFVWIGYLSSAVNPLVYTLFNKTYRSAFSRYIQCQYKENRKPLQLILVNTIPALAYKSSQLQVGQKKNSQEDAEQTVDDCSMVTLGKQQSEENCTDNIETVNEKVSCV

[4] = Selectivity of Ki for human 5HT7 receptor to Ki for rat 5HT1A

5-hydroxytryptamine receptor 7, sequence (P34969 whole entry): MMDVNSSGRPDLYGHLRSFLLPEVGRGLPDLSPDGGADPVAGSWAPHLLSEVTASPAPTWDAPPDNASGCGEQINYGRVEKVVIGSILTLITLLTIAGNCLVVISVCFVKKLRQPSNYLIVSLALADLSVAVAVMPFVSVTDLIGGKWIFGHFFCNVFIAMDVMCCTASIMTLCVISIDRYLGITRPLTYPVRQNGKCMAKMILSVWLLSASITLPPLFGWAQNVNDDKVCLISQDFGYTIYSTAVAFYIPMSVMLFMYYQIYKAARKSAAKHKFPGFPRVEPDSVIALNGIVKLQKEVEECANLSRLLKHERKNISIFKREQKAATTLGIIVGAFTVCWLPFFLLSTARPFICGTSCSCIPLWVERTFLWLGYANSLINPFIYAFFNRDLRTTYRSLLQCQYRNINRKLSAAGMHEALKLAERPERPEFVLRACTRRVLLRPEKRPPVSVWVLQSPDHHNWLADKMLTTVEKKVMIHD

Row | SMILES | Ki [1] [µM] | Ki [2] [µM] | Ki [3] [µM] | Ratio Ki [4]
1 | COc1ccccc1N1CCN(C(=N)NCCNS(=O)(=O)c2cccc(C)c2)CC1 |  |  |  | 31
2 | COc1ccccc1N1CCN(CCCNS(=O)(=O)c2ccc3ccccc3c2)CC1 | 0.02 | 0.0046 | 0.085 | 
3 | Cc1cccc(S(=O)(=O)NCCN=C(N)N2CCC(C)CC2)c1 | 0.177 | 1.1 | 0.148 | 
4 | COc1ccccc1N1CCN(C(N)=NCCCNS(=O)(=O)c2cccc3ccccc23)CC1 | 0.195 | 9.86 | 0.94 | 
5 | COc1ccccc1N1CCN(C(=N)NCCCCNS(=O)(=O)c2ccc(C)cc2)CC1 | 0.14 | 10.2 | 0.34 | 
6 | Cc1cccc(S(=O)(=O)NCCCCN=C(N)N2CCC(c3ccccc3)CC2)c1 | 0.15 | 12 | 0.77 | 

Next, values leading:

Row | Ki [1] [µM] | Ki [2] [µM] | Ki [3] [µM] | Ratio Ki [4] | SMILES
7 | 0.276 | 17.6 | 1.25 |  | Cc1cccc(S(=O)(=O)NCCCN=C(N)N2CCC(c3ccccc3)CC2)c1
8 | 0.161 | 4.55 | 0.16 |  | Cc1cccc(S(=O)(=O)NCCN=C(N)N2CCC(c3ccccc3)CC2)c1
9 |  | > 10 | > 10 |  | CC1CCN(CCC2CCCN2S(=O)(=O)c2cccc(O)c2)CC1 (single isomer, unassigned)
10 |  | 0.035 | 0.065 |  | O=S(=O)(c1ccccc1)C1(CCCN2CCc3ccccc3C2)CCC1
11 |  | 0.52 | 0.15 |  | COc1ccccc1N1CCN(C(=O)NC(=N)NCc2cccc3ccccc23)CC1
12 | 0.339 | 10.4 | 1.15 |  | COc1ccccc1N1CCN(C(N)=NCCNS(=O)(=O)c2cccc(C)c2)CC1
13 | 0.198 | 2.08 | 0.195 |  | NC(=NCCCCNS(=O)(=O)c1cccc2ccccc12)N1CCc2ccccc2C1
14 | 0.049 | > 4 | 0.4 |  | CCOc1ccccc1CNC(=N)NC(=O)NC

Reference: ChEMBL document CHEMBL1154019, “Sulfonamides with the N-alkyl-N'-dialkylguanidine moiety as 5-HT7 receptor ligands” (Bioorg Med Chem Lett, 2009)
